Experiment: xn = mol fraction of the nth substance listed
Conditions: 101.3 kPa, Liquid

CCOC(=O)OCC [diethyl carbonate] + CCCO
Conditions | viscosity [mPa·s]
293.15 K, x1 = 0.0504 | 1.9
293.15 K, x1 = 0.1007 | 1.662
293.15 K, x1 = 0.2008 | 1.325
293.15 K, x1 = 0.3019 | 1.115
293.15 K, x1 = 0.4004 | 0.998
293.15 K, x1 = 0.5039 | 0.921
293.15 K, x1 = 0.6031 | 0.877
293.15 K, x1 = 0.7007 | 0.84
293.15 K, x1 = 0.7999 | 0.808
293.15 K, x1 = 0.9132 | 0.786
293.15 K, x1 = 0.9531 | 0.785
293.15 K, x1 = 1 | 0.795
298.15 K, x1 = 0.0515 | 1.689
298.15 K, x1 = 0.0993 | 1.482
298.15 K, x1 = 0.2012 | 1.178
298.15 K, x1 = 0.3007 | 1.005
298.15 K, x1 = 0.4026 | 0.904
298.15 K, x1 = 0.5022 | 0.845
298.15 K, x1 = 0.6029 | 0.801
298.15 K, x1 = 0.7041 | 0.762
298.15 K, x1 = 0.8087 | 0.73
298.15 K, x1 = 0.9065 | 0.721
298.15 K, x1 = 0.9523 | 0.729
298.15 K, x1 = 1 | 0.749
303.15 K, x1 = 0.0464 | 1.494
303.15 K, x1 = 0.0963 | 1.315
303.15 K, x1 = 0.1968 | 1.062
303.15 K, x1 = 0.2981 | 0.907
303.15 K, x1 = 0.3987 | 0.818
303.15 K, x1 = 0.4958 | 0.771
303.15 K, x1 = 0.5991 | 0.732
303.15 K, x1 = 0.6967 | 0.703
303.15 K, x1 = 0.8063 | 0.678
303.15 K, x1 = 0.908 | 0.674
303.15 K, x1 = 0.9448 | 0.682
303.15 K, x1 = 1 | 0.699
313.15 K, x1 = 0.05 | 1.214
313.15 K, x1 = 0.1018 | 1.087
313.15 K, x1 = 0.2001 | 0.911
313.15 K, x1 = 0.3017 | 0.795
313.15 K, x1 = 0.3958 | 0.727
313.15 K, x1 = 0.504 | 0.674
313.15 K, x1 = 0.6009 | 0.642
313.15 K, x1 = 0.7032 | 0.624
313.15 K, x1 = 0.7998 | 0.61
313.15 K, x1 = 0.8997 | 0.608
313.15 K, x1 = 0.9468 | 0.612
313.15 K, x1 = 1 | 0.623

CCOC(=O)OCC [diethyl carbonate] + CCO
Conditions | viscosity [mPa·s]
293.15 K, x1 = 0.0503 | 1.098
293.15 K, x1 = 0.0997 | 1.021
293.15 K, x1 = 0.198 | 0.906
293.15 K, x1 = 0.3006 | 0.835
293.15 K, x1 = 0.4031 | 0.792
293.15 K, x1 = 0.5031 | 0.77
293.15 K, x1 = 0.6063 | 0.761
293.15 K, x1 = 0.6898 | 0.755
293.15 K, x1 = 0.8066 | 0.759
293.15 K, x1 = 0.895 | 0.77
293.15 K, x1 = 0.945 | 0.776
293.15 K, x1 = 1 | 0.795
298.15 K, x1 = 0.0496 | 1.05
298.15 K, x1 = 0.0973 | 0.943
298.15 K, x1 = 0.1963 | 0.835
298.15 K, x1 = 0.2985 | 0.771
298.15 K, x1 = 0.398 | 0.728
298.15 K, x1 = 0.5057 | 0.714
298.15 K, x1 = 0.6032 | 0.708
298.15 K, x1 = 0.7035 | 0.703
298.15 K, x1 = 0.7999 | 0.702
298.15 K, x1 = 0.8989 | 0.714
298.15 K, x1 = 0.9283 | 0.721
298.15 K, x1 = 1 | 0.749
303.15 K, x1 = 0.0491 | 0.899
303.15 K, x1 = 0.0984 | 0.834
303.15 K, x1 = 0.1952 | 0.754
303.15 K, x1 = 0.2961 | 0.704
303.15 K, x1 = 0.3946 | 0.673
303.15 K, x1 = 0.4859 | 0.661
303.15 K, x1 = 0.5995 | 0.649
303.15 K, x1 = 0.6959 | 0.648
303.15 K, x1 = 0.7862 | 0.649
303.15 K, x1 = 0.8911 | 0.661
303.15 K, x1 = 0.9254 | 0.669
303.15 K, x1 = 1 | 0.699
313.15 K, x1 = 0.0499 | 0.777
313.15 K, x1 = 0.102 | 0.74
313.15 K, x1 = 0.2038 | 0.676
313.15 K, x1 = 0.3116 | 0.636
313.15 K, x1 = 0.4001 | 0.613
313.15 K, x1 = 0.4971 | 0.6
313.15 K, x1 = 0.6023 | 0.59
313.15 K, x1 = 0.7058 | 0.591
313.15 K, x1 = 0.8065 | 0.596
313.15 K, x1 = 0.9022 | 0.608
313.15 K, x1 = 0.9518 | 0.616
313.15 K, x1 = 1 | 0.623

Reference: the NIST ThermoML archive (doi:10.1021/je0341413)
